Reference: ChEMBL document CHEMBL1201862, “PubChem BioAssay data set” (2004)
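Method: 48-hour compound exposure of cells in 96-well plates, five concentrations, linear interpolation of endpoints. Here, GI50 denotes the concentration required for 50% inhibition of growth.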 Activity calls are given as the source filed them. Cut-off read from the data, not from the text of the source: active = GI50 up to about 1.1 µM and inactive = higher.

How the values were obtained:
Assay in all cases: DTP human tumour cell line panel, 48 h
K562 = system: K562
NCI-H460 = system: NCI-H460
SK-MEL-2 = system: SK-MEL-2
SNB-75 = system: SNB-75
A549 = system: A549
LOX IMVI = system: LOX IMVI
SK-MEL-28 = system: SK-MEL-28
KM-20L2 = system: KM-20L2
SF-268 = system: SF-268
M14 = system: M14
SK-MEL-5 = system: SK-MEL-5
CAKI-1 = system: CAKI-1
RXF 393 = system: RXF 393
SF-539 = system: SF-539
Hs-578T = system: Hs-578T
PC-3 = system: PC-3
BT-549 = system: BT-549
DU-145 = system: DU-145
MDA-N = system: MDA-N
MDA-MB-435 = system: MDA-MB-435

Measured: GI50

CC(=O)OCC1OC(n2ccc(=O)[nH]c2=O)C(OC(C)=O)C(OC(C)=O)C1OC(C)=O (configuration not stated)
inactive: K562 > 100 µM | NCI-H460 > 100 µM | SK-MEL-2 > 100 µM | SNB-75 50.6 µM | A549 > 100 µM | LOX IMVI > 100 µM | SK-MEL-28 > 100 µM | KM-20L2 > 100 µM | SF-268 > 100 µM | M14 > 100 µM | SK-MEL-5 > 100 µM | CAKI-1 > 100 µM | RXF 393 > 100 µM

CCOc1ccc(NC(=O)CC2C(=O)Nc3ccccc3S2(=O)=O)cc1 (configuration not stated)
inactive: K562 > 100 µM | NCI-H460 > 100 µM | SK-MEL-2 75.2 µM | SNB-75 18.1 µM | A549 > 100 µM | LOX IMVI > 100 µM | SK-MEL-28 > 100 µM | KM-20L2 > 100 µM | SF-268 42.7 µM | SF-539 55.1 µM | RXF 393 64.1 µM

COc1c(C)c(O)c2c(c1C)OC(c1ccccc1)CC2=O (configuration not stated)
inactive: K562 35.1 µM | NCI-H460 36.8 µM | SK-MEL-2 22.4 µM | SNB-75 65 µM | A549 52.5 µM | LOX IMVI 46.3 µM | SK-MEL-28 50.4 µM | KM-20L2 31.6 µM | SF-268 56.9 µM | M14 67.1 µM | SK-MEL-5 > 10 µM | CAKI-1 41.2 µM | SF-539 84.5 µM

COc1ccc(/C=C/C(=O)c2sc(NC(=S)NC(=O)c3ccccc3F)nc2C)cc1OC
inactive: K562 > 100 µM | NCI-H460 > 100 µM | SK-MEL-2 > 100 µM | SNB-75 26.5 µM | A549 > 100 µM | LOX IMVI > 100 µM | SK-MEL-28 66.7 µM | KM-20L2 > 100 µM | SF-268 > 100 µM | SK-MEL-5 88.3 µM | CAKI-1 > 100 µM | SF-539 > 100 µM | RXF 393 36.5 µM

CC(=O)NC1=C(NCCO)C(=O)c2ccccc2C1=O
inactive: K562 > 50 µM | NCI-H460 > 50 µM | SK-MEL-2 > 50 µM | SNB-75 > 50 µM | A549 > 50 µM | LOX IMVI > 50 µM | SK-MEL-28 > 50 µM | KM-20L2 24.2 µM | SF-268 > 50 µM | M14 > 50 µM | SK-MEL-5 29.9 µM | SF-539 > 50 µM | RXF 393 > 50 µM

COc1ccc(N(C)CN(C)c2nc(N(C)C)nc(N(C)C)n2)cc1
inactive: K562 > 100 µM | NCI-H460 > 100 µM | SK-MEL-2 > 100 µM | SNB-75 > 100 µM | A549 > 100 µM | LOX IMVI > 100 µM | SK-MEL-28 > 100 µM | KM-20L2 > 100 µM | SF-268 > 100 µM | M14 > 100 µM | SK-MEL-5 > 100 µM | CAKI-1 > 100 µM | SF-539 > 100 µM

CC1=C2CCCC2C/C(=N/Nc2ccc([N+](=O)[O-])cc2[N+](=O)[O-])CC1 (configuration not stated)
inactive: K562 > 100 µM | NCI-H460 > 100 µM | SK-MEL-2 > 100 µM | SNB-75 69.7 µM | A549 > 100 µM | LOX IMVI > 100 µM | SK-MEL-28 > 100 µM | KM-20L2 > 100 µM | SF-268 > 100 µM | M14 > 100 µM | SK-MEL-5 > 100 µM | CAKI-1 > 100 µM | SF-539 > 100 µM

C=C1CC2(CCS(=O)(=O)c3ccccc32)OC1=O (configuration not stated)
inactive: K562 4.04 µM | NCI-H460 18.5 µM | SK-MEL-2 10.7 µM | A549 17.9 µM | LOX IMVI 17.3 µM | SK-MEL-28 13.3 µM | KM-20L2 14.3 µM | SF-268 17.2 µM | M14 6.62 µM | SK-MEL-5 12.4 µM | CAKI-1 1.48 µM | SF-539 5.6 µM

COc1ccc(C)cc1-c1ccc(-c2cc(C)ccc2OC)o1
inactive: K562 > 100 µM | NCI-H460 > 100 µM | SK-MEL-2 56.9 µM | SNB-75 > 100 µM | A549 > 100 µM | LOX IMVI > 100 µM | SK-MEL-28 > 100 µM | KM-20L2 > 100 µM | SF-268 > 100 µM | M14 > 100 µM | CAKI-1 > 100 µM | SF-539 > 100 µM

C=C[C@H]1C=Cc2c(OC)cccc2[C@@H]1COP1(=S)NC(C)C(c2ccccc2)O1 (some centres not stated)
inactive: K562 37.1 µM | NCI-H460 > 100 µM | SNB-75 > 100 µM | A549 83.2 µM | LOX IMVI 17.2 µM | SK-MEL-28 > 100 µM | KM-20L2 > 100 µM | SF-268 62.1 µM | M14 > 100 µM | SK-MEL-5 44.2 µM | SF-539 > 100 µM | RXF 393 51.1 µM

COC(=O)[C@]1(C)CCC[C@@]2(C)C1CCC1=C[C@@]3(C(C)C)CC[C@]12OO3 (some centres not stated)
inactive: K562 25.9 µM | NCI-H460 21.1 µM | SK-MEL-2 36.5 µM | A549 30.6 µM | LOX IMVI 24.7 µM | KM-20L2 > 10 µM | SF-268 24.7 µM | M14 22 µM | SK-MEL-5 15.7 µM | CAKI-1 > 10 µM | SF-539 22.3 µM

Cc1ccc2c(c1)NC(=O)C(N=[N+]=[N-])(c1ccccc1)C2=O (configuration not stated)
inactive: K562 21 µM | NCI-H460 23.6 µM | SK-MEL-2 17.9 µM | SNB-75 33.4 µM | A549 50.5 µM | LOX IMVI 18.3 µM | SK-MEL-28 45.1 µM | KM-20L2 30.3 µM | SF-268 45.2 µM | M14 17 µM | SK-MEL-5 23.1 µM | CAKI-1 24.4 µM | SF-539 35.5 µM

Cc1ccc(-c2nc3cc([N+](=O)[O-])ccc3[nH]2)cc1
inactive: K562 59.3 µM | NCI-H460 42.8 µM | Hs-578T > 100 µM | PC-3 38.9 µM | SK-MEL-2 > 100 µM | BT-549 > 100 µM | SNB-75 > 100 µM | A549 54.1 µM | LOX IMVI 80.5 µM | SK-MEL-28 > 100 µM | SF-268 > 100 µM | M14 > 100 µM | DU-145 82.8 µM | MDA-N > 100 µM | SK-MEL-5 64.7 µM | CAKI-1 38 µM | MDA-MB-435 > 100 µM | SF-539 > 100 µM | RXF 393 > 100 µM

C[C@]12CCC(=O)C=C1CC[C@@H]1C2CC[C@]2(C)Nc3c(cnn3-c3ccccc3)CC12 (some centres not stated)
inactive: K562 > 100 µM | NCI-H460 > 100 µM | SK-MEL-2 > 100 µM | SNB-75 39.1 µM | A549 > 100 µM | SK-MEL-28 > 100 µM | KM-20L2 > 100 µM | M14 > 100 µM | SK-MEL-5 > 100 µM | CAKI-1 > 100 µM | SF-539 > 100 µM | RXF 393 > 100 µM

COc1nc(C(=O)O)c(Cl)c(OC)c1Cl
inactive: K562 > 10 µM | NCI-H460 > 100 µM | SK-MEL-2 > 100 µM | A549 > 100 µM | SK-MEL-28 > 100 µM | KM-20L2 > 100 µM | SF-268 > 100 µM | M14 > 100 µM | SK-MEL-5 > 100 µM | CAKI-1 > 100 µM | SF-539 > 100 µM | RXF 393 > 100 µM
